The supplement of paper PMC11451515

System: P12-Ichikawa
Test: cell viability relative to DMSO control; higher = less cytotoxic
Conditions: 48 h
How it was run: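 NOMO1 or SEM (500 cells/well) or P12-Ichikawa (1000 cells/well) leukemia cells were adapted for at least four passages in each medium. They were seeded in 1536-well plates (5 μl) and pin-dosed with library compounds in DMSO over an 11-point threefold series, 47 μM to 0.79 nM. CellTiter-Glo One luminescence was read after 48 h at 37°C. Viability is the per-plate percentage relative to DMSO wells, with cell-free wells as background.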

[1] = HPLM + 10% dialyzed FBS, 0.000781 µM
[2] = HPLM + 10% dialyzed FBS, 0.00234 µM
[3] = HPLM + 10% dialyzed FBS, 0.00702 µM
[4] = HPLM + 10% dialyzed FBS, 0.0211 µM
[5] = HPLM + 10% dialyzed FBS, 0.0632 µM
[6] = HPLM + 10% dialyzed FBS, 0.19 µM
[7] = HPLM + 10% dialyzed FBS, 0.569 µM
[8] = HPLM + 10% dialyzed FBS, 1.71 µM
[9] = HPLM + 10% dialyzed FBS, 5.12 µM
[10] = HPLM + 10% dialyzed FBS, 15.4 µM
[11] = HPLM + 10% dialyzed FBS, 46.1 µM
[12] = RPMI 5 mM glucose + 10% FBS, 0.000781 µM
[13] = RPMI 5 mM glucose + 10% FBS, 0.00234 µM
[14] = RPMI 5 mM glucose + 10% FBS, 0.00702 µM
[15] = RPMI 5 mM glucose + 10% FBS, 0.0211 µM
[16] = RPMI 5 mM glucose + 10% FBS, 0.0632 µM
[17] = RPMI 5 mM glucose + 10% FBS, 0.19 µM
[18] = RPMI 5 mM glucose + 10% FBS, 0.569 µM
[19] = RPMI 5 mM glucose + 10% FBS, 1.71 µM
[20] = RPMI 5 mM glucose + 10% FBS, 5.12 µM
[21] = RPMI 5 mM glucose + 10% FBS, 15.4 µM
[22] = RPMI 5 mM glucose + 10% FBS, 46.1 µM
[23] = RPMI 5 mM glucose + 10% dialyzed FBS, 0.000781 µM
[24] = RPMI 5 mM glucose + 10% dialyzed FBS, 0.00234 µM
[25] = RPMI 5 mM glucose + 10% dialyzed FBS, 0.00702 µM
[26] = RPMI 5 mM glucose + 10% dialyzed FBS, 0.0211 µM
[27] = RPMI 5 mM glucose + 10% dialyzed FBS, 0.0632 µM
[28] = RPMI 5 mM glucose + 10% dialyzed FBS, 0.19 µM
[29] = RPMI 5 mM glucose + 10% dialyzed FBS, 0.569 µM
[30] = RPMI 5 mM glucose + 10% dialyzed FBS, 1.71 µM
[31] = RPMI 5 mM glucose + 10% dialyzed FBS, 5.12 µM
[32] = RPMI 5 mM glucose + 10% dialyzed FBS, 15.4 µM
[33] = RPMI 5 mM glucose + 10% dialyzed FBS, 46.1 µM

Structure (SMILES): O=C([O-])[C@H](CC(=O)N1C[C@H]2CCCC[C@H]2C1)Cc1ccccc1
- cell viability [1]: 107%
- cell viability [2]: 118%
- cell viability [3]: 120%
- cell viability [4]: 129%
- cell viability [5]: 123%
- cell viability [6]: 125%
- cell viability [7]: 125%
- cell viability [8]: 119%
- cell viability [9]: 131%
- cell viability [10]: 130%
- cell viability [11]: 134%
- cell viability [12]: 114%
- cell viability [13]: 129%
- cell viability [14]: 122%
- cell viability [15]: 129%
- cell viability [16]: 134%
- cell viability [17]: 131%
- cell viability [18]: 131%
- cell viability [19]: 131%
- cell viability [20]: 137%
- cell viability [21]: 139%
- cell viability [22]: 142%
- cell viability [23]: 113%
- cell viability [24]: 122%
- cell viability [25]: 126%
- cell viability [26]: 134%
- cell viability [27]: 123%
- cell viability [28]: 127%
- cell viability [29]: 129%
- cell viability [30]: 122%
- cell viability [31]: 135%
- cell viability [32]: 131%
- cell viability [33]: 129%

Structure (SMILES): C=CCc1cc(OC)c(O)c(C(=O)NCCO)c1
- cell viability [1]: 106%
- cell viability [2]: 113%
- cell viability [3]: 109%
- cell viability [4]: 108%
- cell viability [5]: 106%
- cell viability [6]: 109%
- cell viability [7]: 99.4%
- cell viability [8]: 105%
- cell viability [9]: 103%
- cell viability [10]: 93%
- cell viability [11]: 98.2%
- cell viability [12]: 99.6%
- cell viability [13]: 112%
- cell viability [14]: 95.4%
- cell viability [15]: 104%
- cell viability [16]: 113%
- cell viability [17]: 100%
- cell viability [18]: 103%
- cell viability [19]: 95.4%
- cell viability [20]: 101%
- cell viability [21]: 93.7%
- cell viability [22]: 89.4%
- cell viability [23]: 98.9%
- cell viability [24]: 108%
- cell viability [25]: 104%
- cell viability [26]: 104%
- cell viability [27]: 103%
- cell viability [28]: 101%
- cell viability [29]: 105%
- cell viability [30]: 104%
- cell viability [31]: 84.4%
- cell viability [32]: 105%
- cell viability [33]: 94.1%

Structure (SMILES): NCCCCCC(=O)O
- cell viability [1]: 107%
- cell viability [2]: 109%
- cell viability [3]: 106%
- cell viability [4]: 90.4%
- cell viability [5]: 117%
- cell viability [6]: 105%
- cell viability [7]: 114%
- cell viability [8]: 104%
- cell viability [9]: 102%
- cell viability [10]: 95.3%
- cell viability [11]: 101%
- cell viability [12]: 102%
- cell viability [13]: 101%
- cell viability [14]: 98.6%
- cell viability [15]: 85.2%
- cell viability [16]: 109%
- cell viability [17]: 105%
- cell viability [18]: 110%
- cell viability [19]: 101%
- cell viability [20]: 92.2%
- cell viability [21]: 105%
- cell viability [22]: 88.4%
- cell viability [23]: 98.2%
- cell viability [24]: 112%
- cell viability [25]: 108%
- cell viability [26]: 84.1%
- cell viability [27]: 108%
- cell viability [28]: 97.2%
- cell viability [29]: 105%
- cell viability [30]: 94.7%
- cell viability [31]: 96%
- cell viability [32]: 88.4%
- cell viability [33]: 92.4%

Structure (SMILES): NCCCC(O)(P(=O)(O)O)P(=O)(O)O.O.O.O.[Na+]
- cell viability [1]: 109%
- cell viability [2]: 113%
- cell viability [3]: 123%
- cell viability [4]: 114%
- cell viability [5]: 114%
- cell viability [6]: 112%
- cell viability [7]: 102%
- cell viability [8]: 97.9%
- cell viability [9]: 68.3%
- cell viability [10]: 45.1%
- cell viability [11]: 19.7%
- cell viability [12]: 120%
- cell viability [13]: 116%
- cell viability [14]: 119%
- cell viability [15]: 119%
- cell viability [16]: 119%
- cell viability [17]: 121%
- cell viability [18]: 112%
- cell viability [19]: 107%
- cell viability [20]: 85.5%
- cell viability [21]: 64.9%
- cell viability [22]: 51.4%
- cell viability [23]: 121%
- cell viability [24]: 121%
- cell viability [25]: 125%
- cell viability [26]: 120%
- cell viability [27]: 117%
- cell viability [28]: 120%
- cell viability [29]: 109%
- cell viability [30]: 97.3%
- cell viability [31]: 76.3%
- cell viability [32]: 46.4%
- cell viability [33]: 35.6%

Structure (SMILES): CC(=O)Oc1cc2c(s1)CCN(C(C(=O)C1CC1)c1ccccc1F)C2.Cl (centres undefined)
- cell viability [1]: 95%
- cell viability [2]: 102%
- cell viability [3]: 100%
- cell viability [4]: 107%
- cell viability [5]: 107%
- cell viability [6]: 103%
- cell viability [7]: 107%
- cell viability [8]: 112%
- cell viability [9]: 101%
- cell viability [10]: 106%
- cell viability [11]: 65.1%
- cell viability [12]: 100%
- cell viability [13]: 106%
- cell viability [14]: 101%
- cell viability [15]: 111%
- cell viability [16]: 115%
- cell viability [17]: 124%
- cell viability [18]: 116%
- cell viability [19]: 133%
- cell viability [20]: 101%
- cell viability [21]: 94.8%
- cell viability [22]: 53.5%
- cell viability [23]: 95.9%
- cell viability [24]: 105%
- cell viability [25]: 102%
- cell viability [26]: 104%
- cell viability [27]: 103%
- cell viability [28]: 112%
- cell viability [29]: 104%
- cell viability [30]: 101%
- cell viability [31]: 99.7%
- cell viability [32]: 80.3%
- cell viability [33]: 50.3%

Structure (SMILES): CN(C)/[N+]([O-])=N/Oc1cc(ON[N+](=O)N2CCN(C(=O)c3cc(Cc4n[nH]c(=O)c5ccccc45)ccc3F)CC2)c([N+](=O)[O-])cc1[N+](=O)[O-]
- cell viability [1]: 102%
- cell viability [2]: 105%
- cell viability [3]: 111%
- cell viability [4]: 112%
- cell viability [5]: 120%
- cell viability [6]: 109%
- cell viability [7]: 106%
- cell viability [8]: 106%
- cell viability [9]: 105%
- cell viability [10]: 106%
- cell viability [11]: 99.4%
- cell viability [12]: 106%
- cell viability [13]: 117%
- cell viability [14]: 116%
- cell viability [15]: 120%
- cell viability [16]: 117%
- cell viability [17]: 121%
- cell viability [18]: 120%
- cell viability [19]: 130%
- cell viability [20]: 108%
- cell viability [21]: 114%
- cell viability [22]: 119%
- cell viability [23]: 97%
- cell viability [24]: 96.2%
- cell viability [25]: 115%
- cell viability [26]: 101%
- cell viability [27]: 109%
- cell viability [28]: 108%
- cell viability [29]: 120%
- cell viability [30]: 111%
- cell viability [31]: 100%
- cell viability [32]: 106%
- cell viability [33]: 103%

Structure (SMILES): COc1ccc2c(OCc3nnc4ccc(-c5ccccc5)nn34)ccnc2c1
- cell viability [1]: 101%
- cell viability [2]: 116%
- cell viability [3]: 106%
- cell viability [4]: 104%
- cell viability [5]: 104%
- cell viability [6]: 97.5%
- cell viability [7]: 104%
- cell viability [8]: 95.9%
- cell viability [9]: 103%
- cell viability [10]: 103%
- cell viability [11]: 28.1%
- cell viability [12]: 115%
- cell viability [13]: 117%
- cell viability [14]: 123%
- cell viability [15]: 122%
- cell viability [16]: 114%
- cell viability [17]: 106%
- cell viability [18]: 112%
- cell viability [19]: 117%
- cell viability [20]: 106%
- cell viability [21]: 124%
- cell viability [22]: 122%
- cell viability [23]: 123%
- cell viability [24]: 118%
- cell viability [25]: 105%
- cell viability [26]: 111%
- cell viability [27]: 105%
- cell viability [28]: 105%
- cell viability [29]: 106%
- cell viability [30]: 103%
- cell viability [31]: 106%
- cell viability [32]: 109%
- cell viability [33]: 77.7%

Structure (SMILES): CC(C)(C)Cn1c(N)nc2ccc(-c3[nH]c(C(C)(C)C)nc3-c3ccc(F)cc3)nc21
- cell viability [1]: 92.1%
- cell viability [2]: 96.3%
- cell viability [3]: 92.3%
- cell viability [4]: 96%
- cell viability [5]: 87.2%
- cell viability [6]: 78.7%
- cell viability [7]: 90.1%
- cell viability [8]: 78.9%
- cell viability [9]: 91.5%
- cell viability [10]: 85.3%
- cell viability [11]: 85.4%
- cell viability [12]: 95.4%
- cell viability [13]: 83.8%
- cell viability [14]: 78.3%
- cell viability [15]: 90.6%
- cell viability [16]: 86.4%
- cell viability [17]: 94.1%
- cell viability [18]: 83%
- cell viability [19]: 81.2%
- cell viability [20]: 77.9%
- cell viability [21]: 95.5%
- cell viability [22]: 89.1%
- cell viability [23]: 85.8%
- cell viability [24]: 83.4%
- cell viability [25]: 85.4%
- cell viability [26]: 84.5%
- cell viability [27]: 86.1%
- cell viability [28]: 89.1%
- cell viability [29]: 83.6%
- cell viability [30]: 84.1%
- cell viability [31]: 77.9%
- cell viability [32]: 83%
- cell viability [33]: 81%
